Patent US11559538B2, “Substituted 1,2-oxaborolan-2-ols as PDE4 inhibitors” (Pfizer Inc., priority 2018, dated 2023)
Like-named read-outs stand apart in the source and are kept apart here.

Columns and labels:
Assay type in all cases: cell-based
[1] = system: IL-4; assay: Cytokine assay: IL-4 release from PHA-L stimulated human PBMCs; details: read-out: IL4 IC50
Method: (§1) Cytokine inhibitory activity is determined by measuring the effect of test agent on the release of the cytokines IL-4, IL-13 and IFNγ from human peripheral blood mononuclear cells (PBMCs) stimulated with the T-cell mitogen phytohemagglutinin-L (PHA-L). At the time of assay, human PBMCs (Astarte Biologics) are removed from cryopreservation, thawed quickly at 37° C., diluted in assay medium (RPMI-Gibco 1640 medium, 10% heat inactivated fetal bovine serum (HIFBS), 2 mM glutamine and 10 mM HEPES pH 7.4) and then centrifuged at 250×g for 5 minutes. The resulting cell pellet is re-suspended in assay medium to a concentration of approximately 5×10^6 cells/mL and 50 μL of this cell suspension (approximately 250,000 cells) is added to each well of a 384-well cell culture microtiter plate (Perkin Elmer). Varying concentrations of test compound are then diluted in assay medium and added to the assay plate wells in a volume of 25 μL. After −10 minutes at room temperature (21° C.) the cells are stimulated by the addition of 25 μL of PHA-L (14 μg/mL; Millipore) and the assay plate is placed in an incubator at 37° C. in a humidified environment in 5% carbon dioxide. The final assay conditions are approximately 250,000 human PBMCs per well in assay medium containing 3.5 μg/mL PHA-L and the indicated final concentration of test compound (approximately 10 μM to […] by 4-fold dilution). The final concentration of DMSO in the assay is approximately 0.25%. After 48 hours, the assay plate is removed from the incubator and centrifuged at 250×g for 5 minutes. A portion of the resulting cell supernatant is then used to determine the amount of IL-4, IL-13 and IFNγ in each well. Cytokine measurements are made using human IL-4, IL-13 or IFNγ HTRF assay kits (CisBio) following the manufacturer's assay protocol. The concentrations and resulting effect values for tested compounds are plotted and the concentration of compound required for 50% effect (IC50) is determined with a four-parameter logistic dose response equation (E-WorkBook, ID Business Solutions Ltd.) and shown in Table 17.

[2] = system: IFNγ; assay: Cytokine assay: IFNγ release from PHA-L stimulated human PBMCs
Method: as §1

[3] = system: IL-13; assay: Cytokine assay: IL-13 release from PHA-L stimulated human PBMCs; details: read-out: IL13 IC50
Method: as §1

| IC50 [1] [nM] | IC50 [2] [nM] | IC50 [3] [nM] | IC50 ([2]; Homo sapiens, PBMC) [nM] | IC50 ([1]; Homo sapiens, PBMC) [nM] | IC50 ([3]; Homo sapiens, PBMC) [nM] | Compound |
| --- | --- | --- | --- | --- | --- | --- |
| 4.31 | 2.85 | 890 |  |  |  | CCOc1cc(-c2cncc(C3COB(O)C3)c2)c(C)cc1OC (single isomer, unassigned) [Example 70, 4-(5-(5-ethoxy-4-methoxy-2-methylphenyl)pyridin-3-yl)-1,2-oxaborolan-2-ol] |
| 42 | 18.8 | 1910 |  |  |  | CCOc1cc(-c2cncc(C3COB(O)C3)c2)c(C)cc1OC (single isomer, unassigned) [Example 71, 4-(5-(5-ethoxy-4-methoxy-2-methylphenyl)pyridin-3-yl)-1,2-oxaborolan-2-ol] |
| 34 |  | 465 | 2.81 |  |  | CCOc1ccc(-c2cncc(C3COB(O)C3)c2)cc1OCC (single isomer, unassigned) [Example 97, 4-(5-(3,4-diethoxyphenyl)pyridin-3-yl)-1,2-oxaborolan-2-ol] |
|  | 4.32 | 472 |  | 32.7 |  | CSc1ccc(-c2cncc(C3COB(O)C3)c2)cc1OC1CCCC1 (single isomer, unassigned) [Example 100, 4-(5-(3-(cyclopentyloxy)-4-(methylthio)phenyl)pyridin-3-yl)-1,2-oxaborolan-2-ol] |
| 26 | 13.3 | 2650 |  |  |  | CSc1ccc(-c2cncc(C3COB(O)C3)c2)cc1OC1CCCC1 (single isomer, unassigned) [Example 101, 4-(5-(3-(cyclopentyloxy)-4-(methylthio)phenyl)pyridin-3-yl)-1,2-oxaborolan-2-ol] |
|  |  |  | 0.76 | 0.83 | 487 | CCCOc1cc(-c2nc(COC)cc(C3COB(O)C3)n2)ccc1OC (single isomer, unassigned) [Example 103, 4-(2-(4-methoxy-3-propoxyphenyl)-6-(methoxymethyl)pyrimidin-4-yl)-1,2-oxaborolan-2-ol] |
|  |  |  | 21.5 | 32.7 | 2910 | CCCOc1cc(-c2cncc(C3COB(O)C3)c2)ccc1SC (single isomer, unassigned) [Example 114, 4-(5-(4-(methylthio)-3-propoxyphenyl)pyridin-3-yl)-1,2-oxaborolan-2-ol] |
|  |  |  | 2.43 | 11.7 | 670 | CCCOc1cc(-c2cc(C3COB(O)C3)cnn2)ccc1OC (single isomer, unassigned) [Example 136, 4-(6-(4-methoxy-3-propoxyphenyl)pyridazin-4-yl)-1,2-oxaborolan-2-ol] |
|  |  |  | 3.88 | 12.4 | 450 | CCOc1cc(-c2cncc(C3COB(O)C3)c2)cc(Cl)c1OC (stereo not drawn) [Example 45, 4-(5-(3-chloro-5-ethoxy-4-methoxyphenyl)pyridin-3-yl)-1,2-oxaborolan-2-ol] |
|  |  |  | 3.21 | 4.4 | 166 | CCCOc1cc(-c2cncc(C3COB(O)C3)c2)c(F)cc1OC (stereo not drawn) [Example 49, 4-(5-(2-fluoro-4-methoxy-5-propoxyphenyl)pyridin-3-yl)-1,2-oxaborolan-2-ol] |
|  |  |  | 1.52 | 1.04 | 234 | CCCOc1cc(-c2cncc(C3COB(O)C3)c2)ccc1OC(F)F (stereo not drawn) [Example 50, 4-(5-(4-(difluoromethoxy)-3-propoxyphenyl)pyridin-3-yl)-1,2-oxaborolan-2-ol] |
|  |  |  | 4.44 | 8.04 | 325 | CCCOc1cc(-c2cc(CO)cc(C3COB(O)C3)n2)ccc1OC (stereo not drawn) [Example 64, 4-(4-(hydroxymethyl)-6-(4-methoxy-3-propoxphenyl)pyridin-2-yl)-1,2-oxaborolan-2-ol] |
|  |  |  | 5.34 | 186 | 814 | COc1ccc(-c2cccc(C3COB(O)C3)n2)cc1OC1CCCC1 (stereo not drawn) [Example 65, 4-(6-(3-(cyclopentyloxy)-4-methoxyphenyl)pyridin-2-yl)-1,2-oxaborolan-2-ol] |
| 7.14 | 1.07 | 426 |  |  |  | CCCOc1c(OC)ccc(-c2cncc(C3COB(O)C3)c2)c1F (stereo not drawn) [Example 82, 4-(5-(2-fluoro-4-methoxy-3-propoxphenyl)pyridin-3-yl)-1,2-oxaborolan-2-ol] |
|  |  |  | 4.73 | 9.42 | 439 | CCCOc1cc(-c2nc(C(C)O)cc(C3COB(O)C3)n2)ccc1OC (stereo not drawn) [Example 83, 4-(6-(1-hydroxyethyl)-2-(4-methoxy-3-propoxyphenyl)pyrimidin-4-yl)-1,2-oxaborolan-2-ol] |
|  |  |  | 3.01 | 2.07 | 1240 | CCCOc1cc(-c2nc(COC)cc(C3COB(O)C3)n2)ccc1OC (stereo not drawn) [Example 102, 4-(2-(4-methoxy-3-propoxyphenyl)-6-(methoxymethyl)pyrimidin-4-yl)-1,2-oxaborolan-2-ol] |
| 22.1 | 4.35 | 493 |  |  |  | COc1ccc(-c2cncc(C3COB(O)C3)c2)c(F)c1OC (stereo not drawn) [Example 108, 4-(5-(2-fluoro-3,4-dimethoxyphenyl)pyridin-3-yl)-1,2-oxaborolan-2-ol] |
| 36.1 | 3.81 | 497 |  |  |  | CCCOc1cc(-c2cncc(C3COB(O)C3)c2)ccc1SC (stereo not drawn) [Example 113, 4-(5-(4-(methylthio)-3-propoxyphenyl)pyridin-3-yl)-1,2-oxaborolan-2-ol] |
|  |  |  | 2.45 | 42 | 508 | CCCOc1c(OC)ccc(-c2cccc(C3COB(O)C3)c2)c1F (stereo not drawn) [Example 116, 4-(2′-fluoro-4′-methoxy-3′-propoxy-[1,1′-biphenyl]-3-yl)-1,2-oxaborolan-2-ol] |
|  |  |  | 7.49 | 362 | 567 | COc1cnc(-c2cccc(C3COB(O)C3)c2)nc1OC (stereo not drawn) [Example 122, 4-(3-(4,5-dimethoxypyrimidin-2-yl)phenyl)-1,2-oxaborolan-2-ol] |
|  |  |  | 2.84 | 62.6 | 585 | CCCOc1cc(-c2cccc(C3COB(O)C3)n2)ccc1OC (stereo not drawn) [Example 127, 4-(6-(4-methoxy-3-propoxyphenyl)pyridin-2-yl)-1,2-oxaborolan-2-ol] |
|  |  |  | 5.7 | 11.6 | 591 | COc1ccc(-c2nc(C3COB(O)C3)ccc2F)cc1OC1CCCC1 (stereo not drawn) [Example 131, 4-(6-(3-(cyclopentyloxy)-4-methoxyphenyl)-5-fluoropyridin-2-yl)-1,2-oxaborolan-2-ol] |
|  |  |  | 2.52 | 37.2 | 1090 | CCCOc1cc(-c2cc(C3COB(O)C3)cnn2)ccc1OC (stereo not drawn) [Example 137] |
|  |  |  | 5.02 | 83.9 | 706 | CCOc1cc(-c2cncc(C3COB(O)C3)c2)ccc1SC (stereo not drawn) [Example 144, 4-(5-(3-ethoxy-4-(methylthio)phenyl)pyridin-3-yl)-1,2-oxaborolan-2-ol] |
|  |  |  | 8.49 | 155 | 1220 | COc1ccc(-c2cccc(C3COB(O)C3)c2)c(C#N)c1OC (stereo not drawn) [Example 177, 3′-(2-hydroxy-1,2-oxaborolan-4-yl)-3,4-dimethoxy-[1,1′-biphenyl]-2-carbonitrile] |
|  |  |  | 0.33 | 0.36 | 2190 | CCCOc1cc(-c2nc(OCCO)cc(C3COB(O)C3)n2)ccc1OC (stereo not drawn) [Example 195, 4-(6-(2-hydroxyethoxy)-2-(4-methoxy-3-propoxyphenyl)pyrimidin-4-yl)-1,2-oxaborolan-2-ol] |
|  |  |  | 12.2 | 107 | 1580 | COc1ccc(-c2cccc(C3COB(O)C3)n2)cc1OC (stereo not drawn) [Example 197, 4-(6-(3,4-dimethoxyphenyl)pyridin-2-yl)-1,2-oxaborolan-2-ol] |

| Compound | IC50 [1] [nM] | IC50 [2] [nM] | IC50 [3] [nM] | IC50 ([2]; Homo sapiens, PBMC) [nM] | IC50 ([1]; Homo sapiens, PBMC) [nM] | IC50 ([3]; Homo sapiens, PBMC) [nM] |
| --- | --- | --- | --- | --- | --- | --- |
| COc1ccc(-c2cccc(C3COB(O)C3)c2)cc1OCC(C)C (stereo not drawn) [Example 183, 4-(3′-isobutoxy-4′-methoxy-[1,1′-biphenyl]-3-yl)-1,2-oxaborolan-2-ol] |  |  |  | 6.4 | 102 | 1370 |
